In patent US11401247B2, “Thiazole-5-carboxylic acid derivative and preparation method and use thereof” (XIANGBEI WELMAN PHARMACEUTICAL CO., LTD, priority 2018, dated 2022):
Where two headings read alike, the source gives them in different places.

Assays:
hyperuricemia rats [1] = test: pharmacodynamic screening in rat hyperuricemia model (exogenous uric acid administered, uric acid decomposition inhibited); type: in vivo, SD rats; conditions: for Serum uric acid level, Value after 3 h of drug administration: 3 h after first administration, model group 174.4 ± 39.9, blank 53.9 ± 12.8; for uric acid-lowering effect (in words): 3 h after drug administration, febuxostat and ethyl ester 14 mg/kg oral; for uric acid-lowering effect (in words) / p, uric acid level 3 h after drug administration compared with the blank group: F compounds 10 mg/kg; for p, uric acid level 3 h after drug administration compared with the blank group: febuxostat 14 mg/kg oral
hyperuricemia rats [2] = test: dose-effect relationship study in rat hyperuricemia model; type: in vivo, SD rats; conditions: 3 h after first administration, model group 226.2 ± 35.2, blank 37.4 ± 5.1
Method: In order to further study the pharmacological activity of the compounds of the present disclosure, as well as the relationship between the activity and the dose, this example selected several compounds of the present disclosure to conduct a dose-effect relationship study in a rat model, in which exogenous uric acid was administered and uric acid decomposition was inhibited simultaneously. A positive drug was used as a control.
1. Experimental animals: Male SPF grade SD rats weighing 110-150 grams. […] The animals were free to drink and eat. All cages were sterilized at 121° C., feed was sterilized by irradiation, and water was sterilized purified water.
2. Experimental drugs: F-1C, F-2C, F-3A, 1.0 g for each compound; febuxostat (positive drug) 1.0 g; febuxostat ethyl ester (ethyl 2-[3-cyano-4-isobutoxyphenyl]-4-methylthiazole-5-carboxylate) 1.0 g;
3.1 Formulation of F-1C, F-2C, F-3A: Tor each of the compounds, take 100 mg, add 20 ml of 0.5% sodium carboxymethyl cellulose and grind, and then dilute to 100 ml.
3.2 Take 100 mg of febuxostat, add 20 ml of 0.5% sodium carboxymethyl cellulose and grind, and then dilute to 100 ml.
Except the blank group, the rest rats were modeled for 15 days and then their serum uric acid levels were detected. The rats were equally divided into several groups according to the detected uric acid levels thereof.
F-1C, F-2C and F-3A groups: each compound was taken orally at 3 doses, i.e., 2.5, 5 and 10 mg/kg; QD; and 10 animals for each dose group.
Febuxostat group: oral administration of 10 mg/kg, QD, and 10 animals.
Febuxostat ethyl ester group: oral administration of 10 mg/kg, QD, and 10 animals.
The blank group was not administrated with any drug. Each of the rest groups was orally administrated with oteracil potassium 1 g/kg and uric acid 0.3 g/kg and intraperitoneally injected with 0.1 g/kg uric acid (dissolved in 0.5% sodium carboxymethyl cellulose), once a day on schedule, for 15 days. 0.5 ml of blood samples was drawn from orbit before the experiment and […] after the modelling, respectively, to separated serum for determining serum uric acid levels.
After successful modeling, the rats were equally divided into several groups according to the serum uric acid values thereof, and then were intragastrically administrated with the test drugs. Three hours after the first administration, 0.5 ml of orbital venous blood was drawn from the orbit of the rats, centrifuged at 3000 RPM for 15 min, to obtain for determining the serum uric acid level of each rat.
Data were expressed by mean±standard deviation (′x±SD), and analyzed by Excel 7.0 and SPPS 13.0 for Windows software. Q-test was used for the comparison between groups, and the self-paired t-test was used for the comparison of a group before and after administration. It indicated significant difference when P<0.05.

ICR mice = conditions: for animal deaths within 24 hours from the administration / Autopsy results of survival animals / Abnormal reactions within 12 hours from ig administration: formal test; for animal deaths within 24 hours from the administration: all dose groups; for animal deaths within 24 hours from the administration / Abnormal reactions within 12 hours from ig administration: febuxostat high-dose group; for Number of dead animals: 10 mice; for death, preliminary experiments / toxic reactions, preliminary experiments: intragastric 1600 mg/kg; for Autopsy results of survival animals: 3000 mg/kg ig; for Abnormal reactions within 12 hours from ig administration: F compounds 3000 mg/kg
in vivo = conditions: mouse, po

Compound	Serum uric acid level, Value after 3 h of drug administration (hyperuricemia rats [1]; 14 mg/kg oral)	uric acid-lowering effect (in words) (hyperuricemia rats [1])	p, uric acid level 3 h after drug administration compared with the blank group (hyperuricemia rats [1])	Serum uric acid content, Value after 3 h of drug administration (hyperuricemia rats [2]; 10 mg/kg oral)	animal deaths within 24 hours from the administration (ICR mice)	death, preliminary experiments (ICR mice; mice)	LD50 at 14 days (in vivo) [mg/kg]	Serum uric acid level, Value after 3 h of drug administration (hyperuricemia rats [1]; 10 mg/kg oral)	Serum uric acid content, Value after 3 h of drug administration (hyperuricemia rats [2]; 2.5 mg/kg oral)	Serum uric acid content, Value after 3 h of drug administration (hyperuricemia rats [2]; 5 mg/kg oral)	Autopsy results of survival animals (ICR mice)	Abnormal reactions within 12 hours from ig administration (ICR mice)	Number of dead animals (ICR mice; ig 3000 mg/kg)	toxic reactions, preliminary experiments (ICR mice; mice)	LD50 at 14 days (in vivo; 3000 mg/kg) [mg/kg]	further results
Cc1nc(-c2ccc(OCC(C)C)c(C#N)c2)sc1C(=O)O [Febuxostat, 2-[3-cyano-4-isobutoxyphenyl]-4-methylthiazole-5-carboxylic acid, reference compound]	86.6 ± 17.5^a3b3c3 μmol/L	good effect on lowering uric acid	< 0.001	140.8 ± 33.5^a3, b3 μmol/L	several animals of the high-dose group of febuxotan died	caused death in several mice	701 ± 47.6									Number of dead animals (ICR mice; ig 327.7 mg/kg): 0; Number of dead animals (ICR mice; ig 409.6 mg/kg): 0; Number of dead animals (ICR mice; ig 512 mg/kg): 1; Number of dead animals (ICR mice; ig 640 mg/kg): 3; Number of dead animals (ICR mice; ig 800 mg/kg): 6; Cause of death (ICR mice; mice after ig administration): toxicity to the urinary system
Cc1nc(-c2ccc(OCC(C)C)c(C#N)c2)sc1C(=O)OCCN(C)CCO [Compound F-3A]		very obvious uric acid-lowering effects	no significant difference	82.3 ± 16.8^a3, b3, c3 μmol/L	no animal deaths were observed	no animal died	3000	64.1 ± 16.1^a3b3 μmol/L	173.4 ± 32.7^a3, b3 μmol/L	137.6 ± 24.3^a3, b3 μmol/L	No obvious abnormalities were observed in the organs	no abnormalities were observed	0	no obvious toxicity symptom was observed	≥ 3000	
CCOC(=O)c1sc(-c2ccc(OCC(C)C)c(C#N)c2)nc1C [Febuxostat ethyl ester, ethyl 2-[3-cyano-4-isobutoxyphenyl]-4-methylthiazole-5-carboxylate, reference compound]	113.9 ± 24.9^a3b3c3 μmol/L	inferior to febuxostat		177.3 ± 38.6^a3 μmol/L												
Cc1nc(-c2ccc(OCC(C)C)c(C#N)c2)sc1C(=O)OC(C)Cl (stereo not shown) [Compound F-1C]		very obvious uric acid-lowering effects	no significant difference	100.1 ± 25.8^a3, b3, c3 μmol/L	no animal deaths were observed	no animal died	3000	64.2 ± 28.1^a3b3 μmol/L	189.8 ± 25.3^a3 μmol/L	146.9 ± 19.5^a3, b3 μmol/L	No obvious abnormalities were observed in the organs	no abnormalities were observed	0	no obvious toxicity symptom was observed	≥ 3000	
Cc1nc(-c2ccc(OCC(C)C)c(C#N)c2)sc1C(=O)NC(CC(=O)O)C(=O)O (stereo not shown) [Compound F-2C]				107.3 ± 21.2^a3, b3, c3 μmol/L	no animal deaths were observed	no animal died		68.6 ± 19.2^a3b3c1 μmol/L	172.7 ± 33.9^a3 μmol/L	131.9 ± 29.7^a3, b3 μmol/L	No obvious abnormalities were observed in the organs	no abnormalities were observed	0	no obvious toxicity symptom was observed		LD50/Maximum dose (ICR mice; ig once, mice, 14 days observation, Bliss method, febuxostat: LD50, F compounds: maximum administration dose, no deaths): 3000 mg/kg
